Assays:
zebrafish Trpa1b = test: Whole-cell patch-clamp of HEK293T cells expressing zebrafish Trpa1b; format: cell-based
Procedure: Immortalized HEK293T cells or human colonic fibroblast cells (CCD-18Co; ATCC) were used. HEK293T cells were plated on […] cover slips and transiently transfected with 10 μg of Trpa1b plasmid (pCMV-zTrpa1b-FLAG) (SEQ ID NO:3) and 5 μg of mNeonGreen cDNA (Allele Biotechnology), then grown in a 6 cm plate for 24-48 h. CCD-18Co were cultured in Eagle's minimal essential medium with 10% FBS, 1× penicillin and streptomycin. CCD-18Co cells were plated on 12 mm cover slips and transiently transfected with 5 μg of zTrpa1b plasmid (pCMV-zTrpa1b-FLAG) together with 5 μg of mNeonGreen cDNA (Allele Biotechnology), then grown in a […] plate for 48-72 h. After this time, the cover slips were transferred to a recording chamber containing an extracellular solution composed of 145 mM sodium gluconate, 4 mM KCl, 3 mM MgCl2, 10 mM D-glucose, 10 mM HEPES; pH 7.4 adjusted with NaOH. The internal solution contained 122 mM cesium methane sulfonate, 1.8 mM MgCl2, 9 mM EGTA, 14 mM creatine phosphate (sodium salt), 4 mM Mg-ATP, 0.3 mM Na-GTP, 10 mM HEPES, pH 7.2 adjusted with CsOH. Borosilicate glass pipettes with a resistance of 3-5 MO were used. Whole cell currents were measured on an Axopatch 200B amplifier (Molecular De-vices) under the control of pClamp software. Signals were digitized through a Digidata1550B interface (Molecular Devices). Currents were filtered at 5 kHz (lowpass, Bessel) and sampled at 10 kHz prior to analysis with Clampfit software (Molecular Devices). All the plots and statistical tests were performed on Excel (Microsoft corp.). Basal Trpa1b whole cell currents were measured with a ramp protocol (˜100 to +100 mV, at a holding potential of 0 mV). Photoactive compounds were perfused into the recording chamber and a fluorescent light generated by mercury vapor short arc (U-HGLGPS, OLYMPUS) filtered through an ET-ECFP 434/17 nm filter and through a ET-mCherry 560 nm filter (Chroma Technology) was switched “on” and “off” for 10 s. All experiments were performed at room temperature. The p values were calculated using a two-tailed, paired Student's t-test.

[1] = Z→E thermal isomerisation kinetics; format: physicochemical
Procedure: In order to determine the Z→E thermal isomerisation kinetics in DMSO-d6 a ˜20 mM solution of the relevant compound was irradiated using a Luzchem LZC-4V photoreactor fitted with 12×8 W LZC-420 lamps (420 nm peak emission) until no further change was observable by ^1H NMR. For 30% water:DMSO samples, a 15 μM solution of the relevant compound was irradiated in a quartz cuvette using 365 nm LEDs (3×800 mW Nichia NCSU276A) until no further change was observed by UV-Vis spectroscopy. Compounds (˜25 μM solutions in DMSO) were treated analogously. In the case of compounds studied by NMR, the change in Z-isomer percentage was followed as a function of time through integration of the relevant peaks. […]
For data collected via ^1H NMR, the natural log of the Z isomer concentration was plotted against time to yield a straight line implying first order kinetics. The gradient of this line was used to determine the rate constant for Z→E conversion from which the thermal half-life could be calculated:
For data collected via UV-Vis Spectroscopy, absorbance data at a fixed wavelength was fitted using the following, first order equation: […]
where k represents the rate constant; A∞, A0 and At are the absorbances of the pure E-state, Z-rich state, and time t, respectively. […]

[2] = UV-Vis absorbance, E/Z isomerization with violet and green light; format: physicochemical; details: UV-Vis absorbance in DMSO
Procedure: Compounds were dissolved in DMSO at 250 μM and 260 μM for TRPswitch-A and TRPswitch-B, respectively and UV-Vis absorbance was measured using a NanoDrop 1000 (Thermo Scientific).

In the case of `Cc1nn(C)c(C)c1/N=N/c1ccc(NC(=O)c2cccs2)cc1NC(=O)c1cccs1` [Compound 9, (E)-N,N′-(4-((1,3,5-trimethyl-1H-pyrazol-4-yl)diazenyl)-1,3-phenylene)bis(thiophene-2-carboxamide)], the “current density fold increment after subsequent pulse of green light” value (zebrafish Trpa1b; +100 mV) is reported as 1.26±0.33 fold, the “current density fold increment upon violet light illumination” value (zebrafish Trpa1b; +100 mV) is reported as 2.12±0.47 fold and the “current density fold increment after subsequent pulse of green light” value (zebrafish Trpa1b; −100 mV) is reported as 1.41±0.38 fold. For the same compound, the “current density fold increment upon violet light illumination” value (zebrafish Trpa1b; −100 mV) was 2.27±0.38 fold, the “thermal half-lives” value [1] was “long thermal half-lives” and the “E/Z photoswitching with violet and green light” value [2] was “quantitative photoswitching in both directions”. The “E/Z photoswitching with violet and green light” value ([2]; listed as TRPswitch-B) was “complete return”.

Reference: patent US20220280644A1, “"TRPswitch" - A STEP FUNCTION CHEMO-OPTOGENETIC LIGAND” (UNIVERSITY OF UTAH RESEARCH FOUNDATION, priority 2019, published 2022)
